The numbers were not newly measured in PMC12843750, “Integrated Biomimetic 2D-LC and Permeapad® Assay for Profiling the Transdermal Diffusion of Pharmaceutical Compounds” (Molecules, 2026), which cites them from elsewhere.

Structures are written as SMILES.

For the data set the following is noted: ref Drugbank.

Broadly, the pKa is the negative logarithm of the acid dissociation constant. For the compound `CC(=O)Nc1ccc(O)cc1` [Paracetamol], the pKa is recorded as 9.46.
